We go through two compounds from patent US4694008A, “Chemical compounds” (Smith Kline & French Laboratories Limited, priority 1984, dated 1987).

A value given as a limit tells only on which side of the number the result lay.

Assay [1] deals with histamine H2 -receptors. As to the kind of experiment: inhibition of histamine-induced tachycardia in the isolated guinea pig right atrium. An excerpt:
(§1) The measurement of inhibition of histamine-stimulated secretion of gastric acid from the lumen-perfused stomachs of rats anaesthetised with urethane, and the measurement of inhibition of histamine-induced tachycardia in the isolated guinea pig right atrium, are detailed in U.S. Pat. No. 4,385,058.

The target of assay [2] is T1, histamine H2 -receptors (Rattus norvegicus, UniProt P25102).
T1 construct: histamine-stimulated secretion of gastric acid from the lumen-perfused stomachs of rats anaesthetised with urethane; from tissue; host or cells: stomach of the anaesthetised rat (in vivo, lumen-perfused)
T1 sequence (P25102 whole entry, the tested form may be a part): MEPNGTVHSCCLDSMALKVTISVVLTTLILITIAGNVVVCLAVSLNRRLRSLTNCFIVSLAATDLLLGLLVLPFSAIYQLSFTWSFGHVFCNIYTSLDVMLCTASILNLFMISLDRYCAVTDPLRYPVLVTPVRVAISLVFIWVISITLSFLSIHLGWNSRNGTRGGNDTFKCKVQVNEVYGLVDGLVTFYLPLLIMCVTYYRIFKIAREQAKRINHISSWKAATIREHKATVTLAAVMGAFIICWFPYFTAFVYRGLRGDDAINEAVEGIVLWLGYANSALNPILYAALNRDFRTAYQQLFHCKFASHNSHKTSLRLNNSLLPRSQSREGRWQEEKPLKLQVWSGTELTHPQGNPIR
As to the kind of experiment: inhibition of histamine-stimulated secretion of gastric acid, lumen-perfused stomachs of rats anaesthetised with urethane. It counts as in vivo. Conditions: iv, read-out: ED50 values in the lumen-perfused rat test.
Text: These are actions of histamine which, according to Ash and Schild, Brit. J. Pharmac. Chemother. 27 247 (1966), are not mediated by histamine H1 -receptors.
as §1

For the compound `COc1cnc(NCCCOc2cccc(CN3CCCCC3)c2)[nH]c1=O` [Example 5, 2-[3-[3-(Piperidinomethyl)phenoxy]propylamino]-5-methoxypyrimidin-4-one], the “pA2 values in the guinea pig atrium test” value with histamine H2 -receptors [1] is “more than seven”. Moreover, at histamine H2 -receptors [2], the ED50 is less than 0.1 µmol/kg.
On the same counts, the results for `O=c1[nH]c(CCCOc2cccc(CN3CCCCC3)c2)ncc1OCc1ccccc1` [Example 1, 2-[3-[3-(Piperidinomethyl)phenoxy]propyl]-5-benzyloxypyrimidin-4-one] are “more than seven” and less than 0.1 µmol/kg.

As usually defined, the ED50 is the dose at which the effect has come halfway, by size or by number of responders.
